Structures can show the parent of a compound that is named as a salt. Where two headings read alike, the source gives them in different places. Where a SMILES comes first, the peptide text is derived from it. Bridges are numbered along the chain shown (N, C = ends). [ ]: non-standard residue; d: D form. 2Nal = N[C@@H](Cc1ccc2ccccc2c1)C(=O)O; Lys(iPr) = CC(C)NCCCC[C@H](N)C(=O)O
Assays:
[1] = biological target: T1, SARS-CoV-2 PLpro (nsp3 1564–1878) (Severe acute respiratory syndrome coronavirus 2, UniProt P0DTD1); assay: biochemical; parameters: FRET-quenched peptide (Pro3) cleavage by PLpro, 10 min pre-incubation, slope over 20 min, normalised to no-compound control; conditions: low concentration screen, read-out: % of control remaining
[2] = biological target: T1, SARS-CoV-2 PLpro (nsp3 1564–1878); assay: biochemical; parameters: FRET-quenched peptide (Pro3) cleavage by PLpro, 10 min pre-incubation, slope over 20 min, normalised to no-compound control; conditions: high concentration screen, read-out: % of control remaining

CN(C)C(=O)Oc1cc(OC(=O)N(C)C)cc(C(O)CNC(C)(C)C)c1 (centres unmarked) [Bambuterol (hydrochloride)]
remaining activity at 1.25 µM ([1]; Well no.=6617): 100%
remaining activity at 3.75 µM ([2]; Well no.=6617): 101%

Cc1ccc(-c2c(-c3nn(C)c4ncnc(N5CC[C@H](N6CCCCC6)C5)c34)cnn2C)cc1 [CYP3cide]
remaining activity at 1.25 µM ([1]; Well no.=5646): 95.6%
remaining activity at 3.75 µM ([2]; Well no.=5646): 91.1%

O=c1oc(Cl)c(Cl)c2ccccc12 [3,4-Dichloroisocoumarin]
remaining activity at 1.25 µM ([1]; Well no.=582): 100%
remaining activity at 3.75 µM ([2]; Well no.=582): 103%

Cc1cccn2c(=O)c(-c3nnn[nH]3)cnc12 [Pemirolast (potassium)]
remaining activity at 1.25 µM ([1]; Well no.=7611): 98.6%
remaining activity at 3.75 µM ([2]; Well no.=7611): 96.7%

Cn1cnc(CCN)c1 [1-Methylhistamine dihydrochloride]
remaining activity at 1.25 µM ([1]; Well no.=928): 101%
remaining activity at 3.75 µM ([2]; Well no.=928): 103%

NCCCC[C@H](N[C@@H](CCc1ccccc1)C(=O)O)C(=O)N1CCC[C@H]1C(=O)O [Lisinopril]
remaining activity at 1.25 µM ([1]; Well no.=2270): 91.3%
remaining activity at 3.75 µM ([2]; Well no.=2270): 93.2%

CC(=O)OCC1=C(C(=O)O)N2C(=O)[C@@H](NC(=O)Cc3cccs3)[C@H]2SC1 [Cephalothin sodium]
remaining activity at 1.25 µM ([1]; Well no.=224): 93.6%
remaining activity at 3.75 µM ([2]; Well no.=224): 96.4%

COc1ccc2cc3[n+](cc2c1OC)CCc1cc2c(cc1-3)OCO2
remaining activity at 1.25 µM ([1]; Well no.=3515): 93.4%
remaining activity at 3.75 µM ([2]; Well no.=3515): 92.9%

CNCC(=O)O [Sarcosine]
remaining activity at 1.25 µM ([1]; Well no.=6727): 103%
remaining activity at 3.75 µM ([2]; Well no.=6727): 102%

O=C(O)Cc1ccccc1Nc1c(Cl)cccc1Cl [Diclofenac Diethylamine]
remaining activity at 1.25 µM ([1]; Well no.=5309): 103%
remaining activity at 3.75 µM ([2]; Well no.=5309): 98.6%

CC1(C)C2CCC1(C(=O)O)C(=O)C2 (centres unmarked) [Ketopinic acid]
remaining activity at 1.25 µM ([1]; Well no.=3353): 92.9%
remaining activity at 3.75 µM ([2]; Well no.=3353): 96.9%

CC(C)NCCCC[C@H](NC(=O)[C@H]1CCC(=O)N[C@@H](Cc2ccccc2)C(=O)N[C@@H](Cc2ccc(O)cc2)C(=O)N[C@@H](CCCCNC(C)C)C(=O)N[C@H](CCCN=C(N)N)C(=O)N[C@@H](Cc2ccc3ccccc3c2)C(=O)NCC(=O)N1)C(N)=O [LY2510924] (FY[Lys(iPr)][dR][2Nal]G[dE][Lys(iPr)]-NH2; lactam N-7)
remaining activity at 1.25 µM ([1]; Well no.=8513): 101%
remaining activity at 3.75 µM ([2]; Well no.=8513): 102%

O=C(O)[C@H]1CCCN1C(=O)CCCCC(=O)N1CCC[C@@H]1C(=O)O [Miridesap]
remaining activity at 1.25 µM ([1]; Well no.=8078): 100%
remaining activity at 3.75 µM ([2]; Well no.=8078): 97.4%

C[C@@H]1O[C@@H](OC[C@H]2O[C@@H](Oc3cc(O)c4c(c3)O[C@H](c3ccc(O)c(O)c3)CC4=O)[C@H](O)[C@@H](O)[C@@H]2O)[C@H](O)[C@H](O)[C@H]1O [Eriocitrin]
remaining activity at 1.25 µM ([1]; Well no.=3257): 98.6%
remaining activity at 3.75 µM ([2]; Well no.=3257): 97.1%

C[C@]12CC[C@H](O)CC1=CC[C@@H]1[C@@H]2CC[C@]2(C)C(c3cccnc3)=CC[C@@H]12 [Abiraterone (CB-7598)]
remaining activity at 1.25 µM ([1]; Well no.=5047): 101%
remaining activity at 3.75 µM ([2]; Well no.=5047): 106%

Ic1ccccc1CN[C@@H]1C2CCN(CC2)[C@@H]1C(c1ccccc1)c1ccccc1 [L-703,606 oxalate]
remaining activity at 1.25 µM ([1]; Well no.=964): 96.7%
remaining activity at 3.75 µM ([2]; Well no.=964): 96%

CNC(=O)[C@H]1O[C@@H](n2cnc3c(NCc4ccc(N)cc4)ncnc32)[C@H](O)[C@@H]1O [AB-MECA]
remaining activity at 1.25 µM ([1]; Well no.=306): 87.3%
remaining activity at 1.25 µM ([1]; Well no.=8699): 95.8%
remaining activity at 3.75 µM ([2]; Well no.=306): 87.8%
remaining activity at 3.75 µM ([2]; Well no.=8699): 98.3%

CN(C)CC(C)(C)CNc1nn2c(-c3ccccc3)nnc2cc1C1CCC1 [Akt-I-1]
remaining activity at 1.25 µM ([1]; Well no.=2707): 107%
remaining activity at 3.75 µM ([2]; Well no.=2707): 106%

O=C(Nc1cccc(Nc2ncc(Br)c(NCCc3cnc[nH]3)n2)c1)N1CCCC1 [BX912]
remaining activity at 1.25 µM ([1]; Well no.=2979): 95.2%
remaining activity at 3.75 µM ([2]; Well no.=2979): 93.8%

CCNC(=O)[C@@H]1CCCN1C(=O)[C@H](CCCNC(=N)N)NC(=O)[C@H](CC(C)C)NC(=O)[C@@H](CC(C)C)NC(=O)[C@H](Cc1ccc(O)cc1)NC(=O)[C@H](CO)NC(=O)[C@H](Cc1c[nH]c2ccccc12)NC(=O)[C@H](Cc1c[nH]cn1)NC(=O)[C@@H]1CCC(=O)N1 [Leuprolide (Acetate)]
remaining activity at 1.25 µM ([1]; Well no.=6469): 104%
remaining activity at 3.75 µM ([2]; Well no.=6469): 104%

CCCN1CCO[C@@H]2c3cc(O)ccc3OC[C@H]21 (racemic)
remaining activity at 1.25 µM ([1]; Well no.=1505): 96%
remaining activity at 3.75 µM ([2]; Well no.=1505): 96.1%

CCCN1C[C@H](CSC)C[C@@H]2c3cccc4[nH]cc(c34)C[C@H]21 [Pergolide methanesulfonate]
remaining activity at 1.25 µM ([1]; Well no.=1257): 112%
remaining activity at 3.75 µM ([2]; Well no.=1257): 111%

COc1cc2ncnc(Nc3ccc(O)cc3)c2cc1OC [WHI-P131]
remaining activity at 1.25 µM ([1]; Well no.=1338): 93.8%
remaining activity at 3.75 µM ([2]; Well no.=1338): 97.1%

NC1(c2ccc(-c3nc4ccn5c(=O)[nH]nc5c4cc3-c3ccccc3)cc2)CCC1 [MK-2206 2HCl]
remaining activity at 1.25 µM ([1]; Well no.=4625): 102%
remaining activity at 3.75 µM ([2]; Well no.=4625): 102%

O=c1c2ccccc2nc2n1CCc1c-2[nH]c2ccccc12 [Rutaecarpine]
remaining activity at 1.25 µM ([1]; Well no.=1396): 96.2%
remaining activity at 1.25 µM ([1]; Well no.=3709): 100%
remaining activity at 3.75 µM ([2]; Well no.=1396): 99.4%
remaining activity at 3.75 µM ([2]; Well no.=3709): 101%

C[N+]1(C)CCO[C@@](O)(c2ccc(-c3ccc([C@@]4(O)C[N+](C)(C)CCO4)cc3)cc2)C1 [Hemicholinium-3]
remaining activity at 1.25 µM ([1]; Well no.=474): 97.1%
remaining activity at 3.75 µM ([2]; Well no.=474): 95.2%

CCCCCCCCCCCC(=O)O [Lauric acid]
remaining activity at 1.25 µM ([1]; Well no.=7169): 96.8%
remaining activity at 3.75 µM ([2]; Well no.=7169): 98.4%

COc1cc(C=CC(=O)O)cc(OC)c1O (stereo in doubt) [Sinapinic acid]
remaining activity at 1.25 µM ([1]; Well no.=6150): 102%
remaining activity at 3.75 µM ([2]; Well no.=6150): 102%

COc1ccc(-c2oc3c(CC=C(C)C)c(O)cc(O)c3c(=O)c2O[C@@H]2O[C@@H](C)[C@H](O)[C@@H](O)[C@H]2O)cc1 [Baohuoside I]
remaining activity at 1.25 µM ([1]; Well no.=6684): 108%
remaining activity at 1.25 µM ([1]; Well no.=7047): 101%
remaining activity at 3.75 µM ([2]; Well no.=6684): 102%
remaining activity at 3.75 µM ([2]; Well no.=7047): 96.4%
remaining activity at 3.75 µM ([2]; Well no.=8129): 99.8%

c1ccc(CNCc2ccc(CN3CCCNCCNCCCNCC3)cc2)nc1 [AMD 3465 (hexahydrobromide)]
remaining activity at 1.25 µM ([1]; Well no.=7245): 90.9%
remaining activity at 1.25 µM ([1]; Well no.=8419): 98.5%
remaining activity at 3.75 µM ([2]; Well no.=7245): 87.4%
remaining activity at 3.75 µM ([2]; Well no.=8419): 92.2%

CC(=O)SCC(Cc1ccccc1)C(=O)NCC(=O)OCc1ccccc1 (centres unmarked) [Racecadotril]
remaining activity at 1.25 µM ([1]; Well no.=2191): 97.6%
remaining activity at 3.75 µM ([2]; Well no.=2191): 95.7%

Reference: article PMC8286840, “Identifying SARS-CoV-2 antiviral compounds by screening for small molecule inhibitors of Nsp3 papain-like protease” (Biochemical Journal, 2021)
